Key:
[1] = test system: child suffering pattern sensitivity-induced seizures; conditions: single case, resistant to anticonvulsive treatment; cited from earlier work
Lennox-Gastaut patients = assay: Open-label Phase 2 add-on study of low-dose fenfluramine in Lennox-Gastaut patients; format: in vivo, human
Method: The efficacy of fenfluramine as an add-on treatments in Lennox-Gastaut patients is studied in a Phase 2 Clinical Trial. The study protocol is described and preliminary results are presented here.
An open-label, non-placebo controlled add-on study was designed to assess the efficacy and safety of low-dose add-on fenfluramine across a range of fenfluramine doses (0.2, 0.4, 0.8 mg/kg/day, to a maximum of 30 mg/day). The trial was conducted over a 20 week period, with responders eligible for follow-on treatment, with follow-up appointments at three month intervals.
Patients were recruited from childhood epilepsy clinics in Leuven and Antwerp, Belgium, and selected for inclusion in the study according to criteria comprising a combination of age, physical and psychological characteristics, and resistance to treatment with conventional therapies. Details of selection criteria are provided below.
Study duration is 20 weeks, ending at week 20 after inclusion of 20 patients, i.e., 20 weeks following the enrollment of the 20th patient. Patients who respond to treatment are enrolled in a follow-on study and assessed on an ongoing basis.
Patients are examined during six clinical visits (V1 through V6) scheduled at four week intervals, ending with V6 at week 20. […] At each visit, endpoints and safety criteria are assessed, and dosages adjusted as necessary.
Add-on treatment is begun at V2. […] Endpoints and safety criteria are assessed (seizure counting, adverse effects, pregnancy testing, and quality of life indicators (CGI, sleep scale)). […]
At each of V3-V5, endpoints and safety criteria are again assessed. […]
At V6, endpoints and safety criteria are again assessed. […]
Fenfluramine: Oral fenfluramine solution (2.5 mg/ml or 5 mg/ml) is provided by Zogenix Pharma. […] Patient compliance is assessed by control of oral solution quantity at each visit and collection of seizure diary with notification of drug intake. […]
Safety assessment: Treatment safety is assessed using a combination of physical examination, blood testing, cardiac evaluation, and adverse event reporting. […]

[2] = test system: self-induced photosensitive seizures; conditions: four cases; cited from earlier work
[3] = test system: children with refractory epilepsy; conditions: 0.5 to 1 mg/kg/day; cited from earlier work

In the case of `CCNC(C)Cc1cccc(C(F)(F)F)c1` (stereo not drawn) [fenfluramine, 3-trifluoromethyl-N-ethylamphetamine], the self-induced seizures [1] is given as “successfully terminated these self-induced seizures”, the total seizure frequency (Lennox-Gastaut patients; 3 patients receiving 0.2 mg/kg/day, add-on, interim results) is given as “significant decreases in total seizure frequency” and the serious side effects (Lennox-Gastaut patients; 9 patients receiving add-on fenfluramine, interim results) is given as “None of the 9 patients receiving fenfluramine reported serious side effects”. For the same compound, the “seizure frequency (overall interim conclusion)” value (Lennox-Gastaut patients; low-dose add-on treatment, early interim data) was “effective in reducing seizure frequency”, the “response of self-induced photosensitive seizures” value [2] was “responded to treatment with fenfluramine” and the “number of seizures experienced by the patients” value [3] was “reduction in the number of seizures”.
